From ChEMBL document CHEMBL1201862, “PubChem BioAssay data set” (2004)
Active and inactive are the calls of the source.

Columns and labels:
[1] = inhibitors of intracellular T. cruzi replication, confirmation, NIH3T3 host cells, beta-gal luminescence (AID 2044); assay type: functional, cell-based;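 note: intracellular parasites grown in NIH/3T3 mouse fibroblasts as host cells; luminescent beta-galactosidase reporter signal from transgenic T. cruzi replicating inside host cells; inhibitors lower the luminescence signal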
[2] = cytotoxicity toward NIH3T3 fibroblasts, dose response, counter-screen, cell-based, ATP luminescence, mouse fibroblasts (AID 2010); assay type: functional;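 note: cells exposed to compound for about 90 hours before reading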
[3] = cells
[4] = target: Transthyretin (Homo sapiens, UniProt P02766); assay: Luminescence-based cell-based high throughput dose response assay to identify activators of Transthyretin (TTR) transcription.; assay type: functional
[5] = system: HEK293; assay: HEK293T cell cytotoxicity, dose response, cytotoxicity control, ATP luminescence, cherry-pick samples (AID 687005); assay type: functional, cell-based; conditions: Homo sapiens;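 note: cells exposed to compound for 48 hours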
[6] = HEK293 Cytotoxicity Assay Measured in Cell-Based System Using Plate Reader - 7071-01_Inhibitor_Dose_CherryPick_Activity_Set2.; assay type: functional
[7] = HepG2 cell cytotoxicity, dose response, cytotoxicity control, cherry-picks, set 5 (AID 1053118); assay type: functional, cell-based
[8] = HEK293 cell cytotoxicity, dose response, cytotoxicity control, cherry-picks, set 5 (AID 1053117); assay type: functional, cell-based
[9] = target: fMet-Leu-Phe receptor (Homo sapiens, UniProt P21462); assay: FPR ligands, dose response (AID 519); assay type: functional
fMet-Leu-Phe receptor, sequence (P21462 whole entry): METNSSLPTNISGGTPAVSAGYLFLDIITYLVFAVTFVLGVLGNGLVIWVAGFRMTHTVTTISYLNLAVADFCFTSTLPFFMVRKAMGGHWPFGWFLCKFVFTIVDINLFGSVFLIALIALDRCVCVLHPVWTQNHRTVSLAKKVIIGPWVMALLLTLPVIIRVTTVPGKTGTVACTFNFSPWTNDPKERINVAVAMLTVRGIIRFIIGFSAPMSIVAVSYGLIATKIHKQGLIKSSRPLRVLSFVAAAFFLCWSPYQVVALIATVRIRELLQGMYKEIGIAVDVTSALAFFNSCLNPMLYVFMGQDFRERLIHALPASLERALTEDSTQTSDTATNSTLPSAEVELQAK

[10] = microbe, parasite or virus in culture; assay type: functional; conditions: Mycobacterium tuberculosis
[11] = target: Nonstructural protein 1 (Influenza A virus, UniProt Q194T2); assay type: functional, Influenza A virus (A/California/07/2009(H1N1))
Nonstructural protein 1, sequence (Q194T2 whole entry): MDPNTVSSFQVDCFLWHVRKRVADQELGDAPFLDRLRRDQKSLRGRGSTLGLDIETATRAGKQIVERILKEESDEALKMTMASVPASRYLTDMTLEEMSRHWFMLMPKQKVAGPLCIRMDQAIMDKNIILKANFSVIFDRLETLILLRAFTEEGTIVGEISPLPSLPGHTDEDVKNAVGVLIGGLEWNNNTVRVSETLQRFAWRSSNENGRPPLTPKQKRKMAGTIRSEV

[12] = human group III sPLA2 inhibitors, dose response, biochemical, QFRET, IC50 (AID 743457);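 note: green fluorescence rise as the enzyme cleaves BODIPY PC-A2 in liposomes; potency for inhibition of the enzyme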
[13] = target: T1, Oxysterols receptor LXR-beta (Homo sapiens, UniProt P55055); assay type: functional, cell-based;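 note: agonist activity at LXR measured by a cell-based luminescence readout across a dose range, run as a counterscreen for daf-12 agonists; HEK293 cells with Gal4-LXR fusion and GAL4-driven luciferase reporter; potency for activation of Gal4-LXR reporter so compounds are agonists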
T1 sequence (P55055 whole entry): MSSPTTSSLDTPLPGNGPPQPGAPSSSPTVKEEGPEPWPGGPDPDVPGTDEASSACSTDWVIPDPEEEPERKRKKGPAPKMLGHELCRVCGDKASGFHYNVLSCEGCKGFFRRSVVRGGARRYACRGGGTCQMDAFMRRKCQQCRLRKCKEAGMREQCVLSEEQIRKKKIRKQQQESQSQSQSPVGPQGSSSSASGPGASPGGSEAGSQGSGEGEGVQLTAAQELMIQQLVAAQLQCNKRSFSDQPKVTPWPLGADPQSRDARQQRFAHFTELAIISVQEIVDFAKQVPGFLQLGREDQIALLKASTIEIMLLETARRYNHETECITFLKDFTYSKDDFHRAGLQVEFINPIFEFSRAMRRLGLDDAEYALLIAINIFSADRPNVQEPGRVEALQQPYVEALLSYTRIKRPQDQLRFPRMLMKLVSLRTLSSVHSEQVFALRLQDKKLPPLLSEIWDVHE

[14] = target: T2, Aryl hydrocarbon receptor (Homo sapiens, UniProt P35869); assay: Luminescence-based cell-based high throughput dose response assay for activators of the Aryl Hydrocarbon Receptor (AHR). [Related pubchem assays: 2796 (Primary screen (AHR activators in singlicate)), 2845 (Confirmation screen (AHR activators in triplicate)), 434939 (Counterscreen (PXR activators in triplicate)), 2804 (Summary (AHR activators))]; assay type: ADME
T2 sequence (P35869 whole entry): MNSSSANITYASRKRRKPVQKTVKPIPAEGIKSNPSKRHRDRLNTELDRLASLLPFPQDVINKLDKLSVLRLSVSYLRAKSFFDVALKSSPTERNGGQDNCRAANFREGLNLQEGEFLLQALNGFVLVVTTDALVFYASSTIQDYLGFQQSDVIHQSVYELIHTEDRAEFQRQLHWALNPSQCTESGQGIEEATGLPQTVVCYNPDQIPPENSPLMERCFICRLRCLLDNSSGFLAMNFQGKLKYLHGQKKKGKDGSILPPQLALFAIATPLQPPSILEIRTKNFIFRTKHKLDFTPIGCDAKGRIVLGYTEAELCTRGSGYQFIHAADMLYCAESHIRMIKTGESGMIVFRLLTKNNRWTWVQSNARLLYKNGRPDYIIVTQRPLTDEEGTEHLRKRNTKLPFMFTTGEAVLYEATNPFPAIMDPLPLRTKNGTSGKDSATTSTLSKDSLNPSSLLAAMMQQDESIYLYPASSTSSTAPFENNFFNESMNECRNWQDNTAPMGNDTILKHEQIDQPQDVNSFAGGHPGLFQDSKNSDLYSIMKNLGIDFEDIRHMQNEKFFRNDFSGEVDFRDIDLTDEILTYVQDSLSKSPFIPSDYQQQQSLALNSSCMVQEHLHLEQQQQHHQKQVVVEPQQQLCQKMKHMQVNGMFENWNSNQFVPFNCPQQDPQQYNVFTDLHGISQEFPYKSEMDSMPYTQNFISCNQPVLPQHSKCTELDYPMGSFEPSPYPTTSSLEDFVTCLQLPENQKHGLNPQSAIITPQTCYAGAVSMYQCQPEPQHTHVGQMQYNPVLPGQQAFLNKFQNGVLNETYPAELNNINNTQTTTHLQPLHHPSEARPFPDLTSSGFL

[15] = system: Vero; assay: host cell cytotoxicity of antiviral hits, dose response, cytotoxicity control for West Nile virus antiviral project, secondary assay (AID 1650); assay type: functional; conditions: Chlorocebus sabaeus
[16] = system: Vero; assay: cells; assay type: functional, cell-based; conditions: Chlorocebus sabaeus
[17] = system: Vero; assay: cells; assay type: functional; conditions: Chlorocebus sabaeus
[18] = inhibitors of PGC1a acetylation in cells, dose response, cell-based, cherry-picked samples (AID 720514); assay type: functional;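 note: potency may reflect raised or lowered acetylation signal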
[19] = inhibitors of firefly luciferase expression or activity, dose response, H4 neuroglioma cells, luminescence (AID 1990); assay type: functional, cell-based
[20] = insulin promoter down-regulators in MIN6 cells, imaging, high-content screening, mouse beta cells (AID 1628); assay type: functional
[21] = system: BJ; assay: cytotoxicity toward BJ-TERT fibroblasts, dose response, cell-based, RAS-independent, luminescence (AID 1933); assay type: functional; conditions: Homo sapiens
[22] = Luminescence Cell-Based Dose Response HTS to Identify Inhibitors of 5'UTR Stem-Loop Driven Prion Protein mRNA Translation in H4 Neuroglioblastoma Cells. [Related pubchem assays: 1827 (Project Summary), 1813 (Primary HTS)]; assay type: functional
[23] = cytotoxicity in MIN6 insulinoma cells, dose response, cytotoxicity control, cell-based, mouse insulinoma (AID 2122); assay type: functional;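 note: confirmatory high-throughput counterscreen run to flag cytotoxic compounds; mouse MIN-6 beta cells carrying an insulin promoter eGFP reporter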
[24] = inhibitors of SNCA 5'UTR-driven reporter translation, confirmation, H4 neuroglioma cells, luminescence (AID 1988); assay type: functional, cell-based
[25] = system: BJ; assay: cells; assay type: functional, cell-based; conditions: Homo sapiens
[26] = system: BJ; assay: cytotoxicity toward BJ-TERT-LT-ST fibroblasts, dose response, cell-based, RAS-independent, luminescence (AID 1935); assay type: functional; conditions: Homo sapiens;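 note: BJ fibroblasts immortalized with TERT plus LT and ST oncogenes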
[27] = cytotoxicity toward DRD oncogenic fibroblasts, dose response, cell-based, non-viral oncogenic, luminescence (AID 1934); assay type: functional; conditions: Homo sapiens
[28] = target: T3, Heat shock factor protein 1 (Mus musculus, UniProt P38532); assay: HSF1 potentiators in luciferase reporter cells, confirmation, cell-based, NIH3T3, luminescence, dose retest (AID 435004); assay type: functional;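 note: stress induced by proteasome inhibitor MG132 added 30 min after compound; luciferase reporter driven by HSF1 response element in NIH3T3 cells; actives raise luminescence as potentiators of the MG132 stress response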
T3 sequence (P38532 whole entry): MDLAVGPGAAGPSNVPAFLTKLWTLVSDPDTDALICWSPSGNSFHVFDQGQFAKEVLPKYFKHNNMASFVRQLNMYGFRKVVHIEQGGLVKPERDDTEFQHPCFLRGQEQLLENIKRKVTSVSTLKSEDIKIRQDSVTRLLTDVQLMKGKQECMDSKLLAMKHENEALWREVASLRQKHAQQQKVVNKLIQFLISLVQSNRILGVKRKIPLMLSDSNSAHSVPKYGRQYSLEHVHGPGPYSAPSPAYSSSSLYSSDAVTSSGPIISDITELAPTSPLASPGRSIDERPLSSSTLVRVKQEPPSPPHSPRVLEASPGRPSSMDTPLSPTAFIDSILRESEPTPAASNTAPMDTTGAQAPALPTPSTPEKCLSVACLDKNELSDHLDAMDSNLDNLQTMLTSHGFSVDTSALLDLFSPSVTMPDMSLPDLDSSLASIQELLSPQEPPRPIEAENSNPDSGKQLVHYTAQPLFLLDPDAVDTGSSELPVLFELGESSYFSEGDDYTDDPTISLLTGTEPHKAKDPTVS

[29] = target: 1-phosphatidylinositol 4,5-bisphosphate phosphodiesterase gamma-1 (Homo sapiens, UniProt P19174); assay: Counterscreen for inhibitors of phospholipase C isozymes (PLC-B3): Fluorescence-based biochemical high throughput dose response assay to identify inhibitors of phospholipase C isozymes (PLC-gamma1).
1-phosphatidylinositol 4,5-bisphosphate phosphodiesterase gamma-1, sequence (P19174 whole entry): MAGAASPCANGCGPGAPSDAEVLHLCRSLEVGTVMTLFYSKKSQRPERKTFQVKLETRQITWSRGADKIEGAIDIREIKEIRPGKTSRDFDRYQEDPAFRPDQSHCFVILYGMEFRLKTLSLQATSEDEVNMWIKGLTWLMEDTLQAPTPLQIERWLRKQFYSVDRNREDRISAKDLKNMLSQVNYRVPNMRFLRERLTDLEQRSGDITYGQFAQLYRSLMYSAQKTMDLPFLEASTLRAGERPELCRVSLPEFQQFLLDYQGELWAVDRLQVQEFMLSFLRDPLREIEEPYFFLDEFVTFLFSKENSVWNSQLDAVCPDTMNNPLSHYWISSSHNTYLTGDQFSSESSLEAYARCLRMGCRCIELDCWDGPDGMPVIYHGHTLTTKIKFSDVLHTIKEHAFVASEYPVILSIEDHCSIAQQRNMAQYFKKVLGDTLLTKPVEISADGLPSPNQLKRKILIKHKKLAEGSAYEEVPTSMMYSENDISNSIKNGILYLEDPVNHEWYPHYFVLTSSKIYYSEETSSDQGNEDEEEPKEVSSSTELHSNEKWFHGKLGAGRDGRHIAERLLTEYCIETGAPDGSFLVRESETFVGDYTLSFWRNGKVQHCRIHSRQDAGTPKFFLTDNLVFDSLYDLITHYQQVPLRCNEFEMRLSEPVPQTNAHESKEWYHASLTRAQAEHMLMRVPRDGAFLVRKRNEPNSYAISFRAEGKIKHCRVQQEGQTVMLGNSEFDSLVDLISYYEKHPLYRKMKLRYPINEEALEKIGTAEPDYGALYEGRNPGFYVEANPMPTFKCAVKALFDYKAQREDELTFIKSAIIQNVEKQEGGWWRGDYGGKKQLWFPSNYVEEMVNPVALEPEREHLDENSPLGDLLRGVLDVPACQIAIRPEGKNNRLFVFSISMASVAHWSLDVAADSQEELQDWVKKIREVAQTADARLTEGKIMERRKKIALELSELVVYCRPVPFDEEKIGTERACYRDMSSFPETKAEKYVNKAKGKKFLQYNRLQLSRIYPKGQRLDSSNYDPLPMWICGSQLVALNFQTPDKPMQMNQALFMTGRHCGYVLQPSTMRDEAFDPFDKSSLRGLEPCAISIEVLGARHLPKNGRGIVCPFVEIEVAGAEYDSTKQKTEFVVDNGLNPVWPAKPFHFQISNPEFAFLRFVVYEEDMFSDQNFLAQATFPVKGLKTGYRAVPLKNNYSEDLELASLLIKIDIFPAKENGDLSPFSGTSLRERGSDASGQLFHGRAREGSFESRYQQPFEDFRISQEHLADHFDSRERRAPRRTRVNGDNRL

[30] = target: 1-phosphatidylinositol 4,5-bisphosphate phosphodiesterase beta-3 (Homo sapiens, UniProt Q01970); assay: Fluorescence-based biochemical high throughput dose response assay to identify inhibitors of phospholipase C isozymes (PLC-B3).
1-phosphatidylinositol 4,5-bisphosphate phosphodiesterase beta-3, sequence (Q01970 whole entry): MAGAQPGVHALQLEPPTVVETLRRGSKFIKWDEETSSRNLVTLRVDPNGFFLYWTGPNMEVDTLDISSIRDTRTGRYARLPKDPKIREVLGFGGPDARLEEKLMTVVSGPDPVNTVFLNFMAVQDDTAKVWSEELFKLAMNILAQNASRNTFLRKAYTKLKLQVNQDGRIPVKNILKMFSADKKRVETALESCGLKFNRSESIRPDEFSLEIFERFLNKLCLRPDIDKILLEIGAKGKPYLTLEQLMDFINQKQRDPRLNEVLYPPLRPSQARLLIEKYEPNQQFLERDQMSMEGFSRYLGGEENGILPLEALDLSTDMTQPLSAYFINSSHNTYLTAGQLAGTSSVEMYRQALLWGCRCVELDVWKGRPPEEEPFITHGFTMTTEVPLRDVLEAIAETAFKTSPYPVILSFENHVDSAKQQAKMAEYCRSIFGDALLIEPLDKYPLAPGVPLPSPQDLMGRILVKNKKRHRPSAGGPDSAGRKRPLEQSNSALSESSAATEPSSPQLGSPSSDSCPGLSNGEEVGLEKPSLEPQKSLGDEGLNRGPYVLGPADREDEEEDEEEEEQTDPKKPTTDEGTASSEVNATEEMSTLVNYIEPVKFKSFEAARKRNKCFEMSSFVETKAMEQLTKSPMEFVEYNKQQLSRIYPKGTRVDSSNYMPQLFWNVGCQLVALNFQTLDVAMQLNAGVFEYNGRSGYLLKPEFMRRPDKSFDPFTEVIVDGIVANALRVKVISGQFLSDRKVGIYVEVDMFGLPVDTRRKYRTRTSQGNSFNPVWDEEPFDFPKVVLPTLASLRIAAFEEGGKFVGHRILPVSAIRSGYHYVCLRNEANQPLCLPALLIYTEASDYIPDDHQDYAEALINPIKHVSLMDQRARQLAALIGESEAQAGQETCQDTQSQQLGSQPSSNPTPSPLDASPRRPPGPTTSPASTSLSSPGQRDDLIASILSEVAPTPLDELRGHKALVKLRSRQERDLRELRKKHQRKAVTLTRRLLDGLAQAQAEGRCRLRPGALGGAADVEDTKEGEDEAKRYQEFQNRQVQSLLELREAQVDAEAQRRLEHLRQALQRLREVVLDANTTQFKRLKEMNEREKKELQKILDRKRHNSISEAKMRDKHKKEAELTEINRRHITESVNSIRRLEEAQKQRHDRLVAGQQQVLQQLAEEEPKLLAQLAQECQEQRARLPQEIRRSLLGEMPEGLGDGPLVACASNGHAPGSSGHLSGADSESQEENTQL

[31] = ADAM10 inhibitors, peptide cleavage, dose response, biochemical, QFRET (AID 743254);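 note: ADAM10 enzyme with the DM2 quenched FRET peptide as substrate; EDANS fluorescence gain as the protease cuts the substrate; inhibitor potency against ADAM10 proteolytic activity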
[32] = target: Disintegrin and metalloproteinase domain-containing protein 17 (Homo sapiens, UniProt P78536); assay: ADAM17 protease inhibitors, dose response, counter-screen for ADAM10 exosite inhibitor project, biochemical, quenched FRET substrate (AID 743253)
Disintegrin and metalloproteinase domain-containing protein 17, sequence (P78536 whole entry, the tested form may be a part): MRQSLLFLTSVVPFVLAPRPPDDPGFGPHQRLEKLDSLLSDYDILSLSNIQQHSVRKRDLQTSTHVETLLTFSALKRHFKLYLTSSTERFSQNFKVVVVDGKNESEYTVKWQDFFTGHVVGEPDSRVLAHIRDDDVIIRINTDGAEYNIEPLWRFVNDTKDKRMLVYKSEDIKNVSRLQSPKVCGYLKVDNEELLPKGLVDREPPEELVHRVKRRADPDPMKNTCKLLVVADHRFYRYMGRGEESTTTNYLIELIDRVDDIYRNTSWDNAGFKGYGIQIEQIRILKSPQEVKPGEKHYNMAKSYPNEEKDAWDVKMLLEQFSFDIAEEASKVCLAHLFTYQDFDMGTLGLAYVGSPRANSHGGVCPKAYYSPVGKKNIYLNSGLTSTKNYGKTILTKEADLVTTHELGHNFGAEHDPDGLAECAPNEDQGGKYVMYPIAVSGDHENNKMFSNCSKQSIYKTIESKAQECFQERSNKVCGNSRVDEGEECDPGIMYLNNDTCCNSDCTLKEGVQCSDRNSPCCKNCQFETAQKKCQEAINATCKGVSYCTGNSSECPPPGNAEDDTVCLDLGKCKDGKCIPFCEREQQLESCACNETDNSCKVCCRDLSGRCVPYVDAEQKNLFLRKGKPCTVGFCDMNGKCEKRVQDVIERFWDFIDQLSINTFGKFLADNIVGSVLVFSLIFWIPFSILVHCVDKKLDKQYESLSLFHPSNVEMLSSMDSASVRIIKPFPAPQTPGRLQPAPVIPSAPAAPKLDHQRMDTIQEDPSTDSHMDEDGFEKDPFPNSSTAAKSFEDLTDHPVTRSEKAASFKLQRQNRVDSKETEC

For `CN(C)CC#CCC(O)(c1ccccc1)C1CCCC1` (stereo unspecified), the EC50 [1] was < 0.1 µM (active), the EC50 [2] was > 60 µM (not active) and the EC50 [3] was 0.016 µM (active).
In the case of `CC(=O)c1cc(C(C)=O)c(C)nc1C`, the EC50 [4] is reported as > 167 µM (inactive).
For `C[C@@H]1CN([C@@H](C)CO)C(=O)c2cc(NS(=O)(=O)c3ccc(F)cc3)ccc2O[C@@H](C)CCCCO[C@@H]1CN(C)Cc1ccc2c(c1)OCO2`, the AC50 [5] was 28.3 µM (active) and the AC50 [6] was 28.3 µM (active).
In the case of `CO[C@H]1CN(C)C(=O)c2cc(NC(=O)Nc3cc(Cl)cc(Cl)c3)ccc2OC[C@@H](C)NC[C@H]1C`, the AC50 [7] is reported as 42.6 µM (active) and the AC50 [8] is reported as > 52 µM (inactive).
In the case of `CCOC(=O)Cc1cc(O)n2nc(C)c(-c3ccc(Cl)cc3)c2n1`, the Ki [9] is reported as 19 µM (inactive).
With `Cc1cc(C)c(C)c(N=Nc2nc3ccccc3n2C)c1C` the CC50 [10] was > 40 µM (active), the IC50 [11] was 17.6 µM (active) and the IC50 [12] was > 122 µM (inactive).
In the case of `Cc1c(C(=O)OC2CCC(C)CC2)[nH]c2c1C(=O)CCC2` (stereo unspecified), the EC50 [13] is reported as > 67.5 µM (inactive).
With `CCOc1ccc(NC2=NC(=O)S/C2=C\c2ccc(O)cc2)cc1` the EC50 [4] was > 167 µM (inactive).
In the case of `CN(C)CCN(C(=O)c1ccc(S(=O)(=O)N2CCc3ccccc32)cc1)c1nc2ccc(F)cc2s1`, the EC50 [1] is reported as < 0.1 µM (active), the EC50 [2] is reported as > 60 µM (not active) and the EC50 [3] is reported as 0.188 µM (active).
For `O=C(N/N=C/c1ccc(-c2ccccc2[N+](=O)[O-])o1)c1cncc(Br)c1`, the EC50 [14] was 6.71 µM (active).
In the case of `Cc1nc2ccccn2c1C(=O)/C=C/c1ccc(F)cc1`, the CC50 [15] is reported as 25.6 µM (active), the IC50 [16] is reported as > 25 µM (active) and the CC50 [17] is reported as 18.7 µM (active). The AC50 [18] was 0.76 µM (active).
For `Cn1c(Cl)cnc1C1CC(=O)c2cc(Cl)ccc2O1` (stereo unspecified), the EC50 [19] was 10.9 µM (active), the IC50 [20] was 2.95 µM (active) and the EC50 [21] was 8.07 µM (active). The EC50 [22] was 10.1 µM (active), the IC50 [23] was 1.98 µM (active) and the CC50 [15] was 17.9 µM (active). For the same molecule, the EC50 [24] was > 120 µM (not active), the EC50 [25] was 8.32 µM (inconclusive) and the EC50 [26] was 7.45 µM (inconclusive). The EC50 [27] was 7.73 µM (active), the EC50 [28] was 38.8 µM (active) and the AC50 [18] was 16.9 µM (active).
With `S=C(Nc1cccc(Cl)c1)Nc1ccccc1Oc1ccccc1` the AC50 [5] was 23.5 µM (active) and the AC50 [6] was 23.5 µM (active).
In the case of `O=c1[nH]c2ccccc2c(=O)n1-c1ccc(Cl)cc1Cl`, the IC50 [29] is reported as > 122 µM (inactive) and the IC50 [30] is reported as > 122 µM (inactive).
With `O=C(COC(=O)c1ccc(Cl)c(S(=O)(=O)N2CCCCCC2)c1)Nc1ccccc1` the IC50 [31] was > 69.5 µM (inactive) and the IC50 [32] was > 69.5 µM (inactive).
In the case of `Cc1ccc2c(c1)c1nc3ccccc3nc1n2C`, the EC50 [14] is reported as 1 µM (active).
With `O=c1[nH]cnc2cc(-c3ccccc3)sc12` the EC50 [13] was > 67.5 µM (inactive).
With `CC(C)C1C(=O)N(Cc2cn(CC3CCCCC3)nn2)CCS(=O)(=O)N1Cc1ccc(-c2ccccc2)cc1` (stereo unspecified) the IC50 [31] was 10.2 µM (inactive) and the IC50 [32] was > 69.5 µM (inactive).
In the case of `COC(=O)C(Cc1ccc(O)cc1)NC(=O)C(C)NC(=O)c1ccc(C(C)(C)C)cc1` (stereo unspecified), the IC50 [29] is reported as > 123 µM (inactive) and the IC50 [30] is reported as > 123 µM (inactive).
